Measurements reported in patent publication EP0876402B1, “GROWTH HORMONE SECRETAGOGUE RECEPTOR FAMILY” (MERCK & CO., INC., priority 1995, dated 1997).

Test system: swine growth hormone secretagogue receptor (GHSR) Type I, clone 7-3, expressed transiently in COS-7 cells
Test: 35S-labeled Compound A binding assay on crude membranes of transfected COS-7 cells

| SMILES | specific binding displaced (displacement of ^35S-Compound A binding by 50 nM unlabeled Compound A, 60 min) | Kd (saturation binding of ^35S-Compound A, clone 7-3 expressed transiently in COS-7 cells, 20°C, 1 hr) |
| --- | --- | --- |
| CC(C)(N)C(=O)N[C@H](COCc1ccccc1)C(=O)N1CCC2(CC1)CN(S(C)(=O)=O)c1ccccc12 [Compound A] | > 90% |  |
| CC(C)(N)C(=O)N[C@H](COCc1ccccc1)C(=O)N1CCC2(CC1)CN(S(C)(=O)=O)c1ccccc12 [^35S-Compound A] |  | ~0.2 nM |
